In PubChem BioAssay (NCI) one finds TGI data, which are given here for 13 compounds.

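Each compound was tested at five concentrations against cells in 96-well plates for 48 hours. TGI marks complete inhibition of growth.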

What all share (assay): NCI-60 cell line screen, 48 h
The test system of assay [1] is 786-0 renal.
Assay [2] deals with A498 renal.
Assay [3] relates to A549 NSCLC.
Assay [4] concerns CCRF-CEM leukemia.
Assay [5] concerns DU-145 prostate.
The test system of assay [6] is HL-60(TB) leukemia.
Assay [7] concerns IGROV1 ovarian.
Assay [8] deals with KM12 colon.
Assay [9] concerns MALME-3M melanoma.
The subject of assay [10] is MCF7 breast.
The test system of assay [11] is MDA-MB-231 breast.
Assay [12] concerns MDA-MB-435.
The subject of assay [13] is NCI-H226 lung.
Assay [14] relates to NCI-H460 lung.
Assay [15] deals with OVCAR-8 ovarian.
For assay [16], the system named is SF-539 CNS.
The subject of assay [17] is SK-MEL-28 melanoma.
In assay [18] the test system is SN12C renal.
Assay [19] concerns OVCAR-5 ovarian.
Assay [20] deals with BT-549 breast.

For the compound `COC(=O)CCc1ccc2c(c1)CC1(C2)Cc2ccc3c(c2C1)CCC3` (configuration not stated), the TGI in assay [1], in assay [2], in assay [3], in assay [4], in [5] and in assay [6] was > 100 µM each time. Also, the TGI in [7], in assay [8], in [9], in assay [10], in [11] and in [12] was > 100 µM in each case. Besides, the TGI in assay [13], in assay [14], in [15], in [16], in assay [17] and in [18] was > 100 µM each time.
In the case of `CCCCCCCCCC(=O)CC(=O)c1c(O)cc(O)cc1O`, the TGI in assay [1] is > 75 µM; in [2], 71.3 µM; in assay [3], > 75 µM; in assay [4] it was > 75 µM; in assay [5], 57.9 µM; in assay [6], 42.8 µM. Also, the TGI in assay [7] is > 75 µM; in [8], 42.8 µM; in [9] it was 32.1 µM; in assay [10] it was > 75 µM; in assay [11], > 75 µM; in assay [12], 39.1 µM. The TGI worked out at 36.2 µM in assay [13]; 48.2 µM in assay [19]; 36.9 µM in [15]; 43.3 µM in assay [16]; 72.8 µM in assay [17]; 37.3 µM in assay [18].
For `c1ccc2c3nnc(c2c1)SCCSCCCSCCS3`, the TGI in assay [1] is > 100 µM; in [2], 92.6 µM; in assay [3] it was > 100 µM; in assay [4] it was > 100 µM; in assay [5] it was > 100 µM; in [6], > 100 µM. The TGI is > 100 µM in [7]; > 100 µM in assay [8]; 77.3 µM in [9]; > 100 µM in [10]; 86.1 µM in assay [11]; > 100 µM in [12]. In addition, the TGI in [13] is > 100 µM; in assay [14], > 100 µM; in assay [19] it was > 100 µM; in assay [15] it was > 100 µM; in [16] it was 40.6 µM; in assay [17], > 100 µM. In addition, the TGI in [18] was > 100 µM.
Regarding `COC(=O)/C(=C\C(=O)c1ccc(Br)cc1)NN=C(c1ccccc1)c1ccccc1`, the TGI in [1], in assay [3], in assay [4], in [5], in assay [6] and in assay [7] was > 10 µM in each case. In addition, the TGI in [8], in assay [9], in [10], in [11], in assay [12] and in assay [15] was > 10 µM in each case. The TGI in [17] and in assay [18] was > 10 µM in each case.
As to `CCCCOc1ccc(S(=O)(=O)/N=C(\NN)Nc2ccc(Cl)cc2)cc1`, the TGI was 31 µM in assay [1]; > 100 µM in assay [2]; 36.6 µM in assay [3]; > 100 µM in [20]; 47.6 µM in assay [4]; 31.1 µM in assay [5]. Moreover, the TGI in assay [6] was > 100 µM; in assay [7], 60.2 µM; in assay [8], > 100 µM; in [9] it was 86.3 µM; in assay [10], > 100 µM; in assay [11], 46.3 µM. In addition, the TGI is > 100 µM in [13]; 31.9 µM in assay [14]; 52.9 µM in [19]; 36.2 µM in [15]; 36.7 µM in assay [16]; > 100 µM in assay [17]. Further, the TGI in assay [18] came out at 38.6 µM.
For the compound `O=c1cc(-c2ccccc2Cl)[nH]c2cc3c(cc12)OCO3`, the TGI was 29.8 µM in assay [1]; 4.16 µM in assay [2]; > 16.7 µM in assay [3]; 0.381 µM in assay [4]; > 18.8 µM in assay [5]; 0.0511 µM in [6]. In addition, the TGI in [7] is > 37.5 µM; in assay [8] it was > 31.6 µM; in assay [9], > 100 µM; in assay [10], > 100 µM; in assay [11], 0.982 µM; in [12], 0.0313 µM. Moreover, the TGI was 0.689 µM in assay [13]; 5.24 µM in assay [14]; > 100 µM in assay [19]; 9.88 µM in assay [15]; 0.458 µM in [16]; > 63.3 µM in [17]. Further, the TGI in assay [18] came to 29.1 µM.
As for `Cn1c2c(cc(-c3ccccc3)c1=O)COc1ccccc1-2`, the TGI in assay [1] was > 100 µM; in [2], > 100 µM; in assay [3], > 100 µM; in [4] it was 57.5 µM; in assay [6], 56.1 µM; in assay [7], > 100 µM. Further, the TGI was 29 µM in assay [8]; 50.8 µM in [9]; > 100 µM in assay [13]; 70.7 µM in assay [14]; 54.1 µM in [19]; > 100 µM in assay [15]. Also, the results for the TGI in assay [16], in assay [17] and in assay [18] were > 100 µM, 84.6 µM and > 100 µM, respectively.
On to `C1=c2ccccc2=C2C(=C(c3ccccc3)C(c3ccccc3)=NN2c2ccccc2)S1`, for which the TGI in assay [1], in [2], in [3], in [4], in assay [6] and in [7] was > 100 µM throughout. Moreover, the TGI in assay [8], in assay [9], in assay [13], in [14], in assay [19] and in assay [15] was > 100 µM in each case. For the same compound, the TGI in assay [16], in assay [17] and in [18] was > 100 µM throughout.
As for `COC(=O)/C(=N\O)C(C(=O)C=C(C)C)C(=O)C(=O)Nc1ccccc1C` (configuration not stated), the TGI in [1], in assay [2], in [3], in assay [4], in assay [6] and in assay [7] was > 100 µM each time. Moreover, the TGI in assay [8], in [9], in [13], in assay [14], in assay [19] and in assay [15] was > 100 µM in each case. Moreover, the TGI in assay [16], in assay [17] and in assay [18] was > 100 µM throughout.
Consider `CCOC(=O)CC(N1CC1)N1CC1`, for which the TGI in assay [1], in [2], in assay [3], in assay [4], in assay [5] and in assay [6] was > 10 µM in each case. In addition, the TGI in assay [7], in [8], in [9], in assay [10], in assay [11] and in assay [12] was > 10 µM throughout. Further, the TGI in assay [13], in assay [14], in assay [19], in assay [16], in assay [17] and in [18] was > 10 µM each time.
For `CC[N+](CC)(CC)/C(=N/S(=O)(=O)c1cc(C)c(Cl)cc1S)[N-]S(=O)(=O)c1ccc(Cl)cc1`, the TGI in assay [1], in assay [2], in assay [4], in assay [5], in assay [6] and in [7] was > 100 µM throughout. Besides, the TGI in assay [8], in assay [10], in assay [11], in assay [12], in [13] and in assay [14] was > 100 µM in each case. Besides, the TGI in assay [19], in [15], in assay [16] and in assay [17] was > 100 µM each time.
Take `CC(=O)O/C=C\OC1CCCC1`: the TGI in assay [1], in [2], in assay [3], in [4], in assay [5] and in [6] was > 100 µM each time. For the same compound, the TGI in assay [7], in [8], in assay [9], in [10], in [11] and in assay [12] was > 100 µM in each case. Also, the TGI in assay [13], in assay [14], in assay [15], in assay [16] and in assay [17] was > 100 µM throughout.
For `O=C1/C(=C\c2c(-c3ccccc3)nn(-c3ccccc3)c2O)C(c2ccccc2)=NN1c1ccccc1`, the TGI in assay [1], in assay [2], in [3], in assay [4], in [5] and in assay [6] was > 100 µM in each case. For the same compound, the TGI in [7], in [8], in [9], in assay [10], in [11] and in assay [12] was > 100 µM in each case. The TGI in [13], in assay [14], in assay [19], in assay [15], in [16] and in assay [17] was > 100 µM in each case. Besides, in assay [18], the TGI is > 100 µM.
